Results on 35 molecules are retold here after a melting point compilation (Tetko et al.; mined from patent text by program, amines drawn as free bases though some values may be those of a salt).

Structures are written as SMILES. A value given as a limit tells only on which side of the number the result lay.

Regarding `CC(CC1CCCCC1)C(=O)COS(=O)(=O)c1ccccc1` (stereo not given), the melting point was in the range of 51 to 52 °C.
Regarding `COc1cc2c(cc1OC)-c1c(-c3ccccc3)sc(=N)n1CC2`, the melting point lay in the range of 123 to 125 °C.
`CCOC(=O)C(CC)Oc1cccc(N2CCN(c3ccncc3)CC2)c1` (stereo not given): the melting point was 160 to 162 °C.
Take `Cc1ccc(C(CC(=O)O)C(=O)O)s1` (stereo not given): the melting point was in the range of 186 to 188 °C.
The same measure for `CCn1ncc2c(O)c3c(nc21)C(=O)c1ccccc1CC3`: 190 to 192 °C; for `CC(C)(c1ccc(C(O)(C(F)(F)F)C(F)(F)F)cc1)S(=O)(=O)c1ccccc1`: 185 °C.
For `O=C(O)CN(Cc1ccccc1)C(=O)CCc1nc2c(F)c(F)cc(F)c2s1`, the melting point is 144 to 146 °C.
With `CC(=O)c1cccc(Oc2ncccc2C(=O)NCc2ccc([C@H](C)O)cc2)c1` the figure was 102 to 104 °C; with `O=CNNc1ccc(NC(=S)Nc2ccc(NNC=O)cc2)cc1`, 212 to 214 °C; with `COc1cccc2c(Nc3ccc(O)cc3C)c(C(=O)C(C)C)cnc12`, 243 to 245 °C.
As to `CN(C)c1ccc(C(=O)C#Cc2cccc(OCc3ccccc3)c2)cc1`, the melting point was in the range of 134 to 136 °C.
The same measure for `COc1ccc2cc(C(C)C(=O)NCCN(O)C(N)=O)ccc2c1` (stereo not given): 162 °C; for `CCCN1C(=O)C2(CC(C)C)CC(c3ccc(N)cc3)(C2)C1=O`: 86.5 to 87 °C.
Take `NC(=O)c1nnn(Cc2cc(Br)cc(C(Cl)=C(Cl)Cl)c2)c1N`: the melting point was 175 to 177 °C.
The same measure for `CN(C)C=C(C(=O)c1ccc(Cl)cc1)c1ccccc1[N+](=O)[O-]`: 142 to 148 °C.
The same measure for `O=C1c2ccccc2C(=O)c2oc(-c3ccc(F)cc3)nc21`: more than 260 °C; for `Cc1nc2c(N)nc3cccnc3c2n1CC1(O)CCN(C(=O)OC(C)(C)C)CC1`: 233 to 235 °C; for `Cc1c(NC(=O)CC(C)(C)C)c(C)c2c(c1-c1cccc(N)c1)OCC2c1ccc(C(C)C)cc1` (stereo not given): 170 to 172 °C.
The same measure for `CCOC(=O)C(Cc1ccc(OCCc2nc(-c3ccccc3)oc2C)cc1)C(=O)O` (stereo not given): 95.1 to 96 °C; for `O=C(O)Cc1ccn(-c2ccc(F)cc2)c1`: 100 to 102 °C.
Turning to `O=C(NCc1ccc(Cl)cc1)c1cn(CCN2CCCC2)c2sc(CN3CCOCC3)cc2c1=O`, the melting point was 178 to 180 °C.
`C#CCSc1nn(C(=O)NS(=O)(=O)c2c(C)cccc2OCCC)c(=O)n1C` gave a melting point of 151 °C.
Regarding `BrC(Br)Cc1cccc2[nH]c(-c3ccccc3)cc12`, the melting point was determined as 106 °C.
The same measure for `[N-]=[N+]=NC1=CN(CC(F)(F)F)c2ccccc2C(c2ccccc2)=N1`: 159 to 160 °C; for `O=C1CCCCC1c1cnc2ccccc2c1` (stereo not given): 114 to 115 °C.
The same measure for `CC(C)COc1ccc2c(c1)CCC1C2=CCC2(C)C(=O)CCC12` (stereo not given): 107 to 108 °C; for `O=C(O)c1cc2c3ccccc3[nH]c(=S)n2n1`: 272 to 273 °C; for `CCNC(=S)C1=CC(CF)(CF)Oc2ccc(C(F)(F)F)cc21`: 65 to 67 °C.
`Cc1cc(-n2ccnc2)c2cccc(OCc3c(Cl)ccc(S(=O)(=O)N4C[C@H](O)C[C@H]4C(=O)O)c3Cl)c2n1` came in with a melting point of 140 °C.
`CCOC(=O)c1c(C(F)(F)F)nc(-c2cccs2)c(-c2ccccc2)c1O` returned a melting point of 136 °C.
`Cc1c(C)c(N(C)C(=O)CC(C)(C)C)c(C)c2c1OCC2c1ccc(C(C)C)cc1` (stereo not given): the melting point lay within 80 to 82 °C.
For the molecule `O=C(Nc1noc2ccccc12)N1CCN(c2nc(N3CCCCC3)ns2)CC1`, the melting point lay in the range of 214 to 215 °C.
`CCOc1ccc2nc3ccc(C(=O)O)cn3c(=O)c2c1` gave a melting point of 260 to 265 °C.
With `CCC(O)(c1ccc(OCc2cccc(C)n2)cc1)c1ccccc1OC` (stereo not given) the figure was 110 to 111 °C.
As for `CC(C)NCC(O)COc1nccnc1C1CNCCO1` (stereo not given), the melting point is 74 to 76 °C.
